Reference: PubChem BioAssay AID248 (DTP/NCI, 2004)
“And” between values parts separate entries of the source, which are not always exact repeats. Equal entries are not always repeated. Inconclusive results and toxic doses are left out. Cut-off read from the data, not from the text of the source: active = T/C of 150% or more; inactive = T/C below 125%.

Tested on: L1210 leukemia ip in BDF1 mice, survival T/C
Test: NCI In Vivo Anticancer Drug Screen. Data for tumor model L1210 Leukemia (intraperitoneal) in B6D2F1 (BDF1) mice
Conditions: endpoint: mean survival time, higher = longer survival
In short: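 Mice bearing the transplanted tumor received compound or vehicle. Survival of the treated group was divided by that of the vehicle-treated control group to give the ratio.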

[1] = dose: 100.0 mg/kg/injection, schedule: Q01DX001 (ip), vehicle: Klucel (hydroxypropylcellulose) (HPC)
[2] = dose: 100.0 mg/kg/injection, schedule: Q04DX003 (ip), vehicle: Klucel (hydroxypropylcellulose) (HPC)
[3] = dose: 200.0 mg/kg/injection, schedule: Q01DX001 (ip), vehicle: Klucel (hydroxypropylcellulose) (HPC)
[4] = dose: 200.0 mg/kg/injection, schedule: Q04DX003 (ip), vehicle: Klucel (hydroxypropylcellulose) (HPC)
[5] = dose: 400.0 mg/kg/injection, schedule: Q01DX001 (ip), vehicle: Klucel (hydroxypropylcellulose) (HPC)
[6] = dose: 400.0 mg/kg/injection, schedule: Q04DX003 (ip), vehicle: Klucel (hydroxypropylcellulose) (HPC)
[7] = dose: 100.0 mg/kg/injection, schedule: Q01DX009 (ip), vehicle: saline with Tween-80
[8] = dose: 200.0 mg/kg/injection, schedule: Q01DX009 (ip), vehicle: saline with Tween-80
[9] = dose: 100.0 mg/kg/injection, schedule: Q04DX003 (ip), vehicle: saline with Tween-80
[10] = dose: 200.0 mg/kg/injection, schedule: Q04DX003 (ip), vehicle: saline with Tween-80
[11] = dose: 400.0 mg/kg/injection, schedule: Q04DX003 (ip), vehicle: saline with Tween-80
[12] = dose: 100.0 mg/kg/injection, schedule: Q01DX001 (ip), vehicle: other
[13] = dose: 200.0 mg/kg/injection, schedule: Q01DX001 (ip), vehicle: other

Measured: T/C

CC(=O)NC1=C(c2ccccc2)C(=O)c2ccccc21
inactive: dose: 45.0 mg/kg/injection, schedule: Q01DX001 (ip), vehicle: Klucel (hydroxypropylcellulose) (HPC) 107 % of control | dose: 65.0 mg/kg/injection, schedule: Q01DX001 (ip), vehicle: Klucel (hydroxypropylcellulose) (HPC) 96 % of control | [1] 100 % of control and 104 % of control | [2] 107 % of control | dose: 150.0 mg/kg/injection, schedule: Q01DX001 (ip), vehicle: Klucel (hydroxypropylcellulose) (HPC) 96 % of control | [3] 96 % of control and 117 % of control and 91 % of control | [4] 107 % of control | dose: 300.0 mg/kg/injection, schedule: Q01DX001 (ip), vehicle: Klucel (hydroxypropylcellulose) (HPC) 104 % of control | [5] 97 % of control and 102 % of control and 103 % of control | [6] 97 % of control

O=C(Cc1cccc2ccccc12)NO
inactive: dose: 100.0 mg/kg/injection, schedule: Q01DX009 (ip), vehicle: Klucel (hydroxypropylcellulose) (HPC) 95 % of control | [2] 95 % of control | dose: 200.0 mg/kg/injection, schedule: Q01DX009 (ip), vehicle: Klucel (hydroxypropylcellulose) (HPC) 102 % of control | [4] 95 % of control | dose: 400.0 mg/kg/injection, schedule: Q01DX009 (ip), vehicle: Klucel (hydroxypropylcellulose) (HPC) 101 % of control | [6] 104 % of control

CCOCC[P+](c1ccccc1)(c1ccccc1)c1ccccc1
inactive: dose: 5.0 mg/kg/injection, schedule: Q01DX001 (ip), vehicle: saline 92 % of control | dose: 10.0 mg/kg/injection, schedule: Q01DX001 (ip), vehicle: saline 92 % of control | dose: 10.0 mg/kg/injection, schedule: Q01DX015 (ip), vehicle: saline 90 % of control | dose: 20.0 mg/kg/injection, schedule: Q01DX001 (ip), vehicle: saline 106 % of control | dose: 40.0 mg/kg/injection, schedule: Q01DX001 (ip), vehicle: saline 105 % of control

O=C(O)CCS
inactive: dose: 50.0 mg/kg/injection, schedule: Q01DX001 (ip), vehicle: saline 98 % of control

O=C(CNC(c1ccccc1)(c1ccccc1)c1ccccc1)OC(c1ccccc1)c1ccccc1
inactive: [7] 86 % of control | dose: 100.0 mg/kg/injection, schedule: Q04DX003 (ip), vehicle: saline sonified 106 % of control | [8] 89 % of control | dose: 200.0 mg/kg/injection, schedule: Q04DX003 (ip), vehicle: saline sonified 92 % of control | dose: 400.0 mg/kg/injection, schedule: Q04DX003 (ip), vehicle: saline sonified 97 % of control

O=C(CCCCCCC(=O)C[N+]12CCC(CC1)C(O)C2)C[N+]12CCC(CC1)C(O)C2 (stereo unspecified)
inactive: dose: 0.15 mg/kg/injection, schedule: Q04DX003 (ip), vehicle: saline 102 % of control | dose: 0.3 mg/kg/injection, schedule: Q04DX003 (ip), vehicle: saline 100 % of control | dose: 0.6 mg/kg/injection, schedule: Q04DX003 (ip), vehicle: saline 102 % of control

CC(=O)/C(C)=C\c1ccc(O)cc1
inactive: [9] 91 % of control | [10] 98 % of control | [11] 102 % of control

CCOC(CN(C(C)=O)C1(c2ccc(OC)c(OC)c2)C(=O)c2ccccc2C1=O)OCC
inactive: [1] 110 % of control | [3] 105 % of control | [5] 98 % of control

O=C(OCc1ccccc1CN1CCCC1)c1ccc(Br)cc1
inactive: dose: 100.0 mg/kg/injection, schedule: Q04DX002 (ip), vehicle: Klucel (hydroxypropylcellulose) (HPC) 111 % of control | dose: 200.0 mg/kg/injection, schedule: Q04DX002 (ip), vehicle: Klucel (hydroxypropylcellulose) (HPC) 90 % of control | dose: 400.0 mg/kg/injection, schedule: Q04DX002 (ip), vehicle: Klucel (hydroxypropylcellulose) (HPC) 96 % of control

Cn1c(=O)cc(C=Nc2ccc(N=Nc3ccccc3)cc2)c2ccccc21
inactive: dose: 100.0 mg/kg/injection, schedule: Q01DX001 (ip), vehicle: saline 94 % of control | dose: 200.0 mg/kg/injection, schedule: Q01DX001 (ip), vehicle: saline 96 % of control | dose: 400.0 mg/kg/injection, schedule: Q01DX001 (ip), vehicle: saline 87 % of control

O=C(Nc1ccc(F)cc1)Oc1ccc(OCc2ccccc2)cc1
inactive: dose: 100.0 mg/kg/injection, schedule: Q01DX001 (ip), vehicle: carboxymethylcellulose (CMC) 95 % of control | dose: 100.0 mg/kg/injection, schedule: Q01DX009 (ip), vehicle: carboxymethylcellulose (CMC) 99 % of control and 103 % of control | dose: 100.0 mg/kg/injection, schedule: Q04DX002 (ip), vehicle: carboxymethylcellulose (CMC) 93 % of control and 98 % of control | dose: 200.0 mg/kg/injection, schedule: Q01DX001 (ip), vehicle: carboxymethylcellulose (CMC) 101 % of control | dose: 200.0 mg/kg/injection, schedule: Q01DX009 (ip), vehicle: carboxymethylcellulose (CMC) 95 % of control and 99 % of control | dose: 200.0 mg/kg/injection, schedule: Q04DX002 (ip), vehicle: carboxymethylcellulose (CMC) 98 % of control and 100 % of control | dose: 400.0 mg/kg/injection, schedule: Q01DX001 (ip), vehicle: carboxymethylcellulose (CMC) 101 % of control | dose: 400.0 mg/kg/injection, schedule: Q01DX009 (ip), vehicle: carboxymethylcellulose (CMC) 95 % of control and 91 % of control | dose: 400.0 mg/kg/injection, schedule: Q04DX002 (ip), vehicle: carboxymethylcellulose (CMC) 96 % of control and 100 % of control

CCCC(C)(COC(N)=O)COC(N)=O
inactive: [7] 93 % of control | [8] 90 % of control | dose: 400.0 mg/kg/injection, schedule: Q01DX009 (ip), vehicle: saline with Tween-80 109 % of control

Nc1nnnn1-c1ccc2ccccc2c1
inactive: [9] 101 % of control | [10] 97 % of control | [11] 101 % of control

CCCCOC(=O)c1[nH]cnc1/N=N/N(C)CCCC
inactive: [12] 112 % of control | [13] 120 % of control

Cn1c(=O)c2c(nc(C3CC3)n2C)n(C)c1=O
inactive: dose: 50.0 mg/kg/injection, schedule: Q01DX001 (ip), vehicle: other 112 % of control | [12] 95 % of control | [13] 95 % of control

COC1C(=O)CCC2(CO2)C1(O)C1(C)OC1CCC(C)C (stereo unspecified)
inactive: dose: 100.0 mg/kg/injection, schedule: Q01DX009 (ip), vehicle: acetone 95 % of control | dose: 200.0 mg/kg/injection, schedule: Q01DX009 (ip), vehicle: acetone 92 % of control

CN(C)c1ccc(C(=O)CCCN2CCC(O)(c3ccc(C(F)(F)F)cc3)CC2)cc1
inactive: dose: 50.0 mg/kg/injection, schedule: Q01DX001 (ip), vehicle: Klucel (hydroxypropylcellulose) (HPC) 97 % of control | [1] 96 % of control | [3] 105 % of control

CC1=C(O)C(=O)C(C2=C(O)C(=O)C(C)=C(O)C2=O)=C(O)C1=O
inactive: dose: 0.1 mg/kg/injection, schedule: Q01DX Z (ip), vehicle: carboxymethylcellulose (CMC) 111 % of control | dose: 0.2 mg/kg/injection, schedule: Q01DX Z (ip), vehicle: carboxymethylcellulose (CMC) 105 % of control | dose: 0.5 mg/kg/injection, schedule: Q01DX Z (ip), vehicle: carboxymethylcellulose (CMC) 94 % of control | dose: 1.0 mg/kg/injection, schedule: Q01DX Z (ip), vehicle: carboxymethylcellulose (CMC) 94 % of control | dose: 5.0 mg/kg/injection, schedule: Q01DX001 (ip), vehicle: carboxymethylcellulose (CMC) 103 % of control | dose: 10.0 mg/kg/injection, schedule: Q01DX001 (ip), vehicle: carboxymethylcellulose (CMC) 102 % of control | dose: 12.0 micrograms/kg/injection, schedule: Q01DX Z (ip), vehicle: carboxymethylcellulose (CMC) 101 % of control | dose: 25.0 micrograms/kg/injection, schedule: Q01DX Z (ip), vehicle: carboxymethylcellulose (CMC) 101 % of control | dose: 50.0 micrograms/kg/injection, schedule: Q01DX Z (ip), vehicle: carboxymethylcellulose (CMC) 101 % of control
